From patent US6903101B1, “Substituted pyridazines and fused pyridazines with angiogenesis inhibiting activity” (Bayer Pharmaceuticals Corporation, priority 2000, dated 2005) come the findings set out here.

Broadly, the melting point is the temperature of the solid-liquid transition. For orientation: pIC50 means the negative decadic logarithm of the IC50, by convention in mol/L.

Molecules are shown by their SMILES. pIC50: −log10 of the molar value. Counter-ions that a name gives are not always drawn. Some results are limits rather than exact numbers.

One series concerns the target T1, KDR kinase domain (Homo sapiens, UniProt P35968).
T1 construct: The cytosolic kinase domain of KDR kinase was expressed as a 6 His fusion protein in Sf9 insect cells; 6 His; made in house; host or cells: Sf9 insect cells
In words: KDR Assay (kinase ELISA, poly(Glu4;Tyr1) phosphorylation). In kind it is biochemical. The following applies: 3.3 μM ATP, 60 minutes room temperature. As to the method:
The cytosolic kinase domain of KDR kinase was expressed as a 6 His fusion protein in Sf9 insect cells. The KDR kinase domain fusion protein was purified over a Ni++chelating column. Ninety-six well ELISA plates were coated with 5 μg poly(Glu4;Tyr1) (Sigma Chemical Co., St Louis, Mo.) in 100 μl HEPES buffer (20 mM HEPES, pH 7.5, 150 mM NaCl, 0.02% Thimerosal) at 4° overnight. Before use, the plate was washed with HEPES, NaCl buffer and the plates were blocked with 1% BSA, 0.1% Tween 20 in HEPES, NaCl buffer.
Test compounds were serially diluted in 100% DMSO from 4 mM to 0.12 μM in half-log dilutions. These dilutions were further diluted twenty fold in H2O to obtain compound solutions in 5% DMSO. […]
The assay was incubated with test compound or vehicle alone with gentle agitation at room temperature for 60 minutes. […] PY/anti-PY complexes were detected with an anti-mouse IgG/HRP conjugate (Amershamn International plc, Buckinghamshire, England). Phosphotyrosine was quantitated by incubating with 100 μl 3, 3′, 5, 5′ tetramethylbenzidine solution (Kirkegaard and Perry, TMB Microwell 1 Component peroxidase substrate). […]
Optical densities were determined spectrophotometrically at 450 nm in a 96-well plate reader, SpectraMax 250 (Molecular Devices). Background (no ATP in assay) OD values were subtracted from all ODs and the percent inhibition was calculated according to the equation: [formula] […]

The target of series [1] is T2, full length KDR receptor in NIH3T3 cells (Homo sapiens, UniProt P35968).
T2 construct: NIH3T3 cells expressing the full length KDR receptor were grown in DMEM; expressed in transfected cells; host or cells: NIH3T3 cells (G418 selection)
T2 sequence (P35968 20-1356): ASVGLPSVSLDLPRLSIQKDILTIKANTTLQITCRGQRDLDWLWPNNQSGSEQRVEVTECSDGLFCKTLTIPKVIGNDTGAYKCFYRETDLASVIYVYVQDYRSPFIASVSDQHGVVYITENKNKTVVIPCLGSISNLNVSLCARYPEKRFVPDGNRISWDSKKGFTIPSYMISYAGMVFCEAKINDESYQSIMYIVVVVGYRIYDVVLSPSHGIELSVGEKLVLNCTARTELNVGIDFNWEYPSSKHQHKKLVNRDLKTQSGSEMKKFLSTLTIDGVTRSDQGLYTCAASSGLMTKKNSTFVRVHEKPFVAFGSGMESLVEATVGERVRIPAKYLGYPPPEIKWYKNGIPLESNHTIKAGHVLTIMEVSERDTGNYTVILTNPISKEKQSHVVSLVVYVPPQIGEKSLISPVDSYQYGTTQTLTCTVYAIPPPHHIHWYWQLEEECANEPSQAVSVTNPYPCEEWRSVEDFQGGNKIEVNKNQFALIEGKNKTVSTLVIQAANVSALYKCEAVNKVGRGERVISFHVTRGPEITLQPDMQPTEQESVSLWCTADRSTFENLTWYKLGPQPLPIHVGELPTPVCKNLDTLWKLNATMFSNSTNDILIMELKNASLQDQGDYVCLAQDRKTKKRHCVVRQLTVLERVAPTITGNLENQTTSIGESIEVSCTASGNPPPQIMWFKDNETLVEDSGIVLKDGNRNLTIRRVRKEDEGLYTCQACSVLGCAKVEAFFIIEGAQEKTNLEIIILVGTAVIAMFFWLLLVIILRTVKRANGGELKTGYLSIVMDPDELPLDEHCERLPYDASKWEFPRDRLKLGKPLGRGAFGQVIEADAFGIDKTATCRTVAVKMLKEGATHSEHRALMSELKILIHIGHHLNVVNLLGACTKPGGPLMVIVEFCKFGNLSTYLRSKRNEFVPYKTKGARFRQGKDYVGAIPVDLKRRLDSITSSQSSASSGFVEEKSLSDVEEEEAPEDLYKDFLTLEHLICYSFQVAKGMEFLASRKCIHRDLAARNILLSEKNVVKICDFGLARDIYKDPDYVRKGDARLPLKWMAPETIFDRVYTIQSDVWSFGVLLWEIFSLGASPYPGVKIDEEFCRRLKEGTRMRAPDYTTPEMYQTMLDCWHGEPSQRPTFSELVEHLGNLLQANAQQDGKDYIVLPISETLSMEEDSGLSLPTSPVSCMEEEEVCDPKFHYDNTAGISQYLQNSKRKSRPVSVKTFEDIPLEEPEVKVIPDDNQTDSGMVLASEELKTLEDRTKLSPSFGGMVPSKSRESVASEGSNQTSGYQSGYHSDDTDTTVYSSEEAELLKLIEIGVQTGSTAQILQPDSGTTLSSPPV
Nature of the series: Cell mechanistic assay - Inhibition of 3T3 KDR phosphorylation. In kind it is cell-based. As to conditions: NIH3T3 cells expressing KDR, VEGF (30 ng/ml) stimulation, receptor phosphotyrosine ELISA. As to the method: Cell mechanistic assay-Inhibition of 3T3 KDR phosphorylation:
NIH3T3 cells expressing the full length KDR receptor were grown in DMEM (Life Technologies, Inc., Grand Island, N.Y.) supplemented with 10% newborn calf serum, low glucose, 25 mM/L sodium pyruvate, pyridoxine hydrochloride and 0.2 mg/ml of G418 (Life Technologies Inc., Grand Island, N.Y.). The cells were maintained in collagen I-coated T75 flasks (Becton Dickinson Labware, Bedford, Mass.) in a humidified 5% CO2 atmosphere at 37° C.
Fifteen thousand cells were plated into each well of a collagen I-coated 96-well plate in the DMEM growth medium. Six hours later, the cells were washed and the medium was replaced with DMEM without serum. […]
To assess receptor phosphorylation, 100 microliters of each cell lysate was added to the wells of an ELISA plate precoated with 300 ng of antibody C20 (Santa Cruz Biotechnology, Inc., Santa Cruz, Calif.). […] Wells were washed and phosphotyrosine was quantitated by addtion of 100 μl per well of 3,3′,5,5′ tetramethylbenzidine (Kirkegaard and Perry, TMB Microwell 1 Component peroxidase substrate) solution. […]
Optical densities (OD) were determined spectrophotometrically at 450 nm in a 96-well plate reader (SpectraMax 250, Molecular Devices). Background (no VEGF added) OD values were subtracted from all ODs and percent inhibition was calculated according to the equation: [formula] […]
In general terms: An ELISA detects its analyte on a solid surface through an enzyme-linked reagent.

T1 sequence (P35968 834-1162 limits assumed): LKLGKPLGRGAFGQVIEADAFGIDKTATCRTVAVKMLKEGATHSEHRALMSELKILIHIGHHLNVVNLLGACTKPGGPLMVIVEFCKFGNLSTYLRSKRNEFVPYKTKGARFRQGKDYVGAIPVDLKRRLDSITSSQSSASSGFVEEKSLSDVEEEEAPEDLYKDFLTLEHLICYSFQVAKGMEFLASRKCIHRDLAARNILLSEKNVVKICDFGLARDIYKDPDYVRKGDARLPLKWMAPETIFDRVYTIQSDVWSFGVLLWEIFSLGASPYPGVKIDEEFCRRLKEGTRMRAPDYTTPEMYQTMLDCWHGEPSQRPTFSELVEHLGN

Regarding `CNC(=O)c1cc(Cc2nnc(Nc3ccc(Cl)cc3)c3ccccc23)ccn1` (as salt: hydrochloride) [Example 11, 4-[4-(4-Chlorophenylamino)phthalazin-1-ylmethyl]pyridin-2-yl carboxylic acid methylamide dihydrochloride], the melting point was 255 °C (dec.).
On the same count and under the same terms, for `NC(=O)c1cc(COc2nnc(Nc3ccc(Cl)cc3)c3ccccc23)ccn1` (as salt: hydrochloride) [Example 15, 4-[4-(4-Chlorophenylamino)phthalazin-1-yloxymethyl]pyridin-2-yl carboxylic acid amide dihydrochloride] the value was 143 to 145.2 °C.
`CNC(=O)c1cc(Cc2nnc(Nc3ccc(Cl)cc3)c3ccccc23)ccn1` (as salt: methanesulfonate) [Example 12, 4-[4-(4-Chlorophenylamino)phthalazin-1-ylmethyl]pyridin-2-yl carboxylic acid methylamide dimethanesulfonate] gave a melting point of 245 to 249 °C.
On the same count and under the same terms, for `NC(=O)c1cc(Cc2nnc(Nc3ccc(Cl)cc3)c3ccccc23)ccn1` (as salt: methanesulfonate) [Example 14, 4-[4-(4-Chlorophenylamino)phthalazin-1-ylmethyl]pyridin-2-yl carboxylic acid amide dimethanesulfonate] the value was 156 to 161 °C; for `NC(=O)c1cc(COc2nnc(Nc3ccc(Cl)cc3)c3ccccc23)ccn1` (as salt: methanesulfonate) [Example 16, 4-[4-(4-Chlorophenylamino)phthalazin-1-yloxymethyl]pyridin-2-yl carboxylic acid amide dimethanesulfonate], 75 to 80 °C; for `Cl.Cl.NC(=O)c1cc(Cc2nnc(Nc3ccc(Cl)cc3)c3ccccc23)ccn1` [Example 13, 4-[4-(4-Chlorophenylamino)phthalazin-1-ylmethyl]pyridin-2-yl carboxylic acid amide dihydrochloride], 180 to 198 °C.
With `Clc1ccc(Nc2ccc(OCc3ccncc3)nn2)cc1` [Example 21], the results for the pIC50 (against KDR kinase domain; in series [1]) were below 6.00 and below 7.30, respectively.
In turn, `N#CC(c1ccncc1)c1nnc(Nc2ccc3c(c2)CCC3)c2ccccc12` (stereo not shown) [Example 22, 1-(indan-5-ylamino)-4-(4-pyridylcyanomethyl)phthalazine] yielded a melting point of 122 to 123 °C.
For the molecule `c1ccc2c(Nc3ccc4ncsc4c3)nnc(Cc3ccncc3)c2c1` [Example 23], the melting point was in the range of 163 to 164 °C.
